How the values were obtained:
[1] = system: Human immunodeficiency virus 1; test: Inhibition of HIV-1 replication by 50% (no effect at this concentration); type: functional, organism-based
[2] = Inhibition of Duck HBV replication by 50% (no effect at this concentration); type: functional, organism-based; settings: Anas sp.
[3] = Inhibition of Woodchuck HBV replication by 50% (no effect at this concentration); type: functional, organism-based; settings: Marmota monax
Human alphaherpesvirus 1 = test: Inhibition of HSV-1 replication by 50% (no effect at this concentration); type: functional, organism-based
[4] = Reduction of viable cell numbers by 50% was evaluated by HepAD38 cellular assay; type: ADME, cell-based; settings: human, HepAD38 cells; read-out: TC50 (the source's name)
[5] = system: Vesicular stomatitis virus; test: Inhibition of Vesicular stomatis virus replication by 50% (no effect at this concentration); type: functional, organism-based
Newcastle disease virus = test: Inhibition of Newcastles disease virus replication by 50% (no effect at this concentration); type: functional, organism-based; settings: avian paramyxovirus 1
[6] = (§1) Inhibition of hepatitis B virus replication in the HepAD38 cell line.; type: functional, cell-based; settings: Homo sapiens
HepG2 [7] = test: as §1; type: functional, cell-based; settings: Homo sapiens
[8] = Concentration which inhibits hepatitis B virus replication in the HepAD38 cell line.; type: functional; settings: Homo sapiens
HepG2 [9] = test: The concentration of compound which inhibits hepatitis B virus replication in the HepAD38 cell line.; settings: Homo sapiens

Structure (SMILES) | EC50 [1] [µM] | EC50 [2] [µM] | EC50 [3] [µM] | EC50 (Human alphaherpesvirus 1) [µM] | CC50 [4] [µM] | EC50 [5] [µM] | EC50 (Newcastle disease virus) [µM] | EC50 [6] [nM] | EC50 (HepG2 [7]) [µM] | EC90 [8] [µM] | EC90 (HepG2 [9]) [nM]
O=C(N/C(C(=O)N1CCCCC1)=C(/Cl)c1ccc(Cl)cc1)c1ccccc1 | > 81 | > 81 | > 81 | > 81 | 45 | > 81 | > 81 | – | – | – | –
O=C(N/C(C(=O)N1CCCCC1)=C(/Br)c1ccc(F)cc1)c1ccccc1 | > 81 | > 81 | > 81 | > 81 | > 70 | > 81 | > 81 | 3900 | – | – | –
O=C(Nc1nccs1)/C(NC(=O)c1ccccc1)=C(\Cl)c1ccccc1 | – | – | – | – | – | – | – | – | > 75 | – | –
O=C(N/C(C(=O)N1CCCCC1)=C(/Cl)c1ccccc1F)c1ccccc1 | > 81 | > 81 | > 81 | > 81 | 31 | > 81 | > 81 | – | – | – | –
Cc1ccc(C(=O)N/C(C(=O)N2CCCCC2)=C(/Br)c2ccccc2)cc1 | > 81 | > 81 | > 81 | > 81 | > 70 | > 81 | > 81 | 2100 | – | 12 | –
COc1ccccc1/C(Br)=C(\NC(=O)c1ccc([N+](=O)[O-])cc1)C(=O)N1CCCCC1 | > 81 | > 81 | > 81 | > 81 | > 61 | > 81 | > 81 | 130 | – | 0.92 | –
O=C(N/C(C(=O)N1CCCCC1)=C(/Br)c1ccccc1)c1ccc(C(F)(F)F)cc1 | > 81 | > 81 | > 81 | > 81 | > 62 | > 81 | > 81 | 5000 | – | 34 | –
O=C(N/C(C(=O)N1CCCCC1)=C(/Cl)c1ccc(F)cc1)c1ccccc1 | > 81 | > 81 | > 81 | > 81 | > 75 | > 81 | > 81 | 3100 | – | 28 | –
O=C(N/C(C(=O)N1CCCCC1)=C(/Br)c1ccccc1F)c1ccccc1 | > 81 | > 81 | > 81 | > 81 | 70 | > 81 | > 81 | 1500 | – | – | –
O=C(N/C(C(=O)N1CCCCCC1)=C(/Cl)c1ccccc1)c1ccccc1 | – | – | – | – | – | – | – | – | > 75 | – | –
CCN(CC)C(=O)/C(NC(=O)c1ccccc1)=C(\Cl)c1ccccc1 | – | – | – | – | – | – | – | – | > 75 | – | –
COc1ccc(C(=O)N/C(C(=O)N2CCCCC2)=C(/Br)c2ccccc2)cc1 | > 81 | > 81 | > 81 | > 81 | > 67 | > 81 | > 81 | 1900 | – | 19 | –
O=C(N/C(C(=O)N1CCCCC1)=C(/Br)c1ccc(Cl)cc1)c1ccccc1 | > 81 | > 81 | > 81 | > 81 | 55 | > 81 | > 81 | 11000 | – | – | –
O=C(NCc1ccccc1)/C(NC(=O)c1ccccc1)=C(\Cl)c1ccccc1 | – | – | – | – | – | – | – | – | > 75 | – | –
O=C(N/C(C(=O)N1CCCCC1)=C(/Br)c1ccccc1F)c1ccc([N+](=O)[O-])cc1 | > 81 | > 81 | > 81 | > 81 | 42 | > 81 | > 81 | 310 | – | 1.8 | –
O=C(N/C(C(=O)N1CCCCC1)=C(/Br)c1ccccc1)c1ccccc1 | > 81 | > 81 | > 81 | > 81 | > 72 | > 81 | > 81 | 1300 | – | 21 | –
Cc1ccccc1/C(Br)=C(\NC(=O)c1ccc([N+](=O)[O-])cc1)C(=O)N1CCCCC1 | > 81 | > 81 | > 81 | > 81 | > 63 | > 81 | > 81 | 600 | – | 4.6 | –
O=C(N/C(C(=O)N1CCCCC1)=C(/Cl)c1ccccc1)c1ccccc1 | > 81 | > 81 | > 81 | > 81 | > 81 | > 81 | > 81 | 1200 | – | 13 | –

Structure (SMILES) | EC50 [1] [µM] | EC50 [2] [µM] | EC50 [3] [µM] | EC50 (Human alphaherpesvirus 1) [µM] | CC50 [4] [µM] | EC50 [5] [µM] | EC50 (Newcastle disease virus) [µM] | EC50 [6] [nM] | EC50 (HepG2 [7]) [µM] | EC90 [8] [µM] | EC90 (HepG2 [9]) [nM]
Cc1ccccc1/C(Br)=C(\NC(=O)c1ccccc1)C(=O)N1CCCCC1 | > 81 | > 81 | > 81 | > 81 | > 70 | > 81 | > 81 | 890 | – | – | –
O=C(N/C(C(=O)N1CCCCC1)=C(/Br)c1ccccc1)c1ccc(Br)cc1 | > 81 | > 81 | > 81 | > 81 | > 61 | > 81 | > 81 | 530 | – | 3.7 | –
O=C(N/C(C(=O)N1CCCCC1)=C(/Br)c1ccc(Cl)cc1)c1ccc([N+](=O)[O-])cc1 | > 81 | > 81 | > 81 | > 81 | > 60 | > 81 | > 81 | 1600 | – | – | –
COc1ccccc1/C(Br)=C(\NC(=O)c1ccccc1)C(=O)N1CCCCC1 | > 81 | > 81 | > 81 | > 81 | > 70 | > 81 | > 81 | 2100 | – | – | –
Cc1ccc(/C(Br)=C(\NC(=O)c2ccccc2)C(=O)N2CCCCC2)cc1 | > 81 | > 81 | > 81 | > 81 | > 70 | > 81 | > 81 | 2800 | – | – | –
O=C(N/C(C(=O)N1CCCC1)=C(/Cl)c1ccccc1)c1ccccc1 | – | – | – | – | – | – | – | – | 5.6 | – | –
O=C(N/C(C(=O)N1CCCCC1)=C(/Br)c1ccccc1)c1ccc([N+](=O)[O-])cc1 | > 81 | > 81 | > 81 | > 81 | > 65 | > 81 | > 81 | 350 | – | 3 | –
COc1ccc(/C(Br)=C(\NC(=O)c2ccccc2)C(=O)N2CCCCC2)cc1 | > 81 | > 81 | > 81 | > 81 | > 67 | > 81 | > 81 | 13000 | – | – | –
O=C(N/C(C(=O)N1CCCCC1)=C(/Br)c1ccccc1)c1ccc(F)cc1 | > 81 | > 81 | > 81 | > 81 | > 69 | > 81 | > 81 | 860 | – | 4.4 | –
O=C(N/C(C(=O)N1CCCCC1)=C(/Br)c1ccc(F)cc1)c1ccc([N+](=O)[O-])cc1 | > 81 | > 81 | > 81 | > 81 | > 63 | > 81 | > 81 | 720 | – | 11 | –
COc1ccc(C(=O)N/C(C(=O)N2CCCCC2)=C(/Cl)c2ccccc2)cc1 | > 81 | > 81 | > 81 | > 81 | > 75 | > 81 | > 81 | 5200 | – | – | –
O=C(N/C(C(=O)N1CCOCC1)=C(/Cl)c1ccccc1)c1ccccc1 | – | – | – | – | – | – | – | – | 7.3 | – | –
COc1ccc(/C(Cl)=C(\NC(=O)c2ccccc2)C(=O)N2CCCCC2)cc1 | > 81 | > 81 | > 81 | > 81 | > 75 | > 81 | > 81 | > 75000 | – | – | –
O=C(N/C(C(=O)N1CCCCC1)=C(/Cl)c1ccccc1)c1ccc(F)cc1 | > 81 | > 81 | > 81 | > 81 | > 67 | > 81 | > 81 | 1300 | – | 5.5 | –
O=C(N/C(C(=O)N1CCCCC1)=C(/Br)c1ccccc1)c1ccc(Cl)cc1 | > 81 | > 81 | > 81 | > 81 | > 67 | > 81 | > 81 | 540 | – | 3.1 | –
O=C(N/C(C(=O)N1CCCCCCC1)=C(/Cl)c1ccccc1)c1ccccc1 | – | – | – | – | – | – | – | – | > 75 | – | –
O=C(N/C(C(=O)N1CCCCC1)=C(/Cl)c1ccccc1)c1ccc(C(F)(F)F)cc1 | > 81 | > 81 | > 81 | > 81 | > 69 | > 81 | > 81 | > 69000 | – | – | –
Nc1nc(=O)n([C@@H]2CS[C@H](CO)O2)cc1F [EMTRICITABINE] | > 81 | > 81 | > 81 | > 81 | – | > 81 | > 81 | – | 0.03 | – | 300

— ChEMBL document CHEMBL1132834, “Phenylpropenamide derivatives as inhibitors of hepatitis B virus replication” (Bioorg Med Chem Lett, 2000)
